Assay results taken from patent publication US11965100B2, “Aggregation-induced emission luminogens useful for cancer cell discrimination and monitoring” (The Hong Kong University of Science and Technology, priority 2020, dated 2024).

How the values were obtained:
[1] = test system: A549 co-cultured with COS7 cells, HeLa co-cultured with COS7 cells; assay: CCCP treatment of cancer cells co-cultured with normal cells; assay type: cell-based; conditions: A549 or HeLa with COS7, 2 μM, 20 μM CCCP added then removed
Protocol: (§1) FIG. 15 Live A549 cells (A) and live A549 co-cultured with COS 7 cells, live HeLa co-cultured with COS7 cells (B) were pre-stained with 2 μM IVP-02 for 30 min, and treated with 20 μM CCCP for 5 min. Then CCCP was removed away and fresh culture medium was added for another 5 min. λex=488 nm, λem=500-650 nm. Scale bar=20 μm.
To test whether IVP-02 could selectively stain cancer cells and monitor their viability, cancer cells and normal cells were co-cultured and stained with IVP-02. […] After CCCP was removed, the fluorescence in nucleolus disappeared, while the fluorescence in mitochondria recovered gradually. […] The same experiments were also carried out in HeLa cells co-cultured with COS7 cells shown in FIG. 15B and similar phenomena were observed.

HeLa cells [2] = assay: Two-photon imaging in live cells; assay type: cell-based; conditions: 2 μM, 30 min, λex 800 nm
Protocol: FIG. 22 (A) Two-photon microscopy images of live HeLa cells stained with 2 μM IVP-02 for 30 min. λex=800 nm, λem=495-540 nm. Scale bar=20 μm. (B) Viability of A549 cells after incubation with IVP-02, 04, 06, 22, 42, and 62 at different concentrations for 24 h.
Given the high two-photon absorption cross section values of IVP-02 excited by 800 nm, we performed in vitro two-photon imaging of IVP-02 in live HeLa cells.

A549 and HeLa cells = assay: Mitochondrion-nucleolus migration on H2O2 treatment; assay type: cell-based; conditions: pre-stained 2 μM 30 min, 10 mM H2O2 10 min
Protocol: FIG. 17 Live A549 and HeLa cells were pre-stained with 2 μM IVP-02 for 30 min, and treated with 10 mM H2O2 for 10 min. λex=488 nm, λem=500-650 nm. Scale bar=20 μm.
(§2) Monitoring cell viability is a highly valuable task for the fundamental researches in biology, pathology, and medicine. Then we investigated whether IVP-02 could monitor cell viability. Δψm is a very important indicator to characterize cell viability. With the loss of cell viability, Δψm would decrease, while with the recovery of cell viability, Δψm would also recover to the normal level. […] Carbonyl cyanide m-chlorophenyl hydrazone (CCCP) is a type of protonophore and can cause rapid acidification of mitochondria by collapsing Δψm. Cancer cells A549 were pre-stained with IVP-02 for 30 min. In FIG. 15A, in the beginning, IVP-02 stained mitochondria clearly. […] Hydrogen peroxide (H2O2) can inhibit the oxidation respiratory chain that would cause the loss of cell viability. Then live A549 and HeLa cells were pre-stained with IVP-02, and treated with 10 mM H2O2.

[3] = test system: cancer cells (A549 and HeLa) and normal cells (COS7 and HLF); assay: CLSM imaging of separately stained cancer and normal cells; assay type: cell-based; conditions: 2 μM, 30 min, same staining and imaging conditions
Protocol: FIG. 4 CLSM images of live cancer cells (A549 and HeLa) and normal cells (COS7 and HLF) stained with 2 μM IVP-02 for 30 min, respectively. λex=488 nm, λem=500-650 nm. Scale bar=20 μm.
(§3) The bioimaging properties of IVP-02 in live cells were investigated by confocal laser scanning microscopy (CLSM). Cancer cells (A549 and HeLa) and normal cells (COS7 and HLF) were stained with IVP-02, respectively. […] So IVP-02 holds the high potential to differentiate cancer and normal cells. To verify this speculation, cancer and normal cells were co-cultured and stained with IVP-02. […] To precisely confirm the selectivity of IVP-02 to cancer cells, cancer cells A549 and normal cells HLF (A549 and HLF are both human lung cells) were seeded on different cover glasses, respectively. Then the two cover glasses were put in the same dish and stained with IVP-02 at the same time.

A549 cells = assay: Mitochondrion-nucleolus migration on CCCP treatment, A549 cells; assay type: cell-based, human
Protocol: as §1
FIG. 18 Live A549 cells were pre-stained with 2 μM IVP-04, 22, 42, 06, 62 for 30 min, and treated with 20 μM CCCP for 5 min. Then CCCP was removed away and fresh culture medium was added for another 5 min, respectively. λex=488 nm, λem=500-650 nm. Scale bar=20 μm.
as §2
(§4) In addition to IVP-02, we further investigated whether other IVP molecules could monitor the viability of cancer cells through mitochondrion-nucleolus migration was investigated. A549 cells were pre-stained with IVP-04, 22, 42, 06, and 62, respectively, and then CCCP was added.

A549 and HLF cells = assay: CLSM imaging of A549 and HLF cells seeded on different cover glasses in the same dish; assay type: cell-based, human; conditions: 2 μM, 30 min
Protocol: FIG. 5 CLSM images of live cancer cells (A549 and HeLa) co-cultured with normal cells (COS7 and HLF) (A), and the images of A549 and HLF cells seeded on different cover glasses (Scale bar=20 μm) (B) stained with 2 μM IVP-02 for 30 min (Scale bar=50 μm), respectively. λex=488 nm, λem=500-650 nm.
FIG. 10 CLSM images of live cancer cells (A549) co-cultured with normal cells (COS7) (A), and the images of A549 and HLF cells seeded on different cover glasses Scale bar=20 μm (B) stained with 2 μM IVP-02, 04, 06, 22, 42, and 62 for 30 min Scale bar=50 μm, respectively. (The first column in B is the same as FIG. 3B) λex=488 nm, λem=500-650 nm.
as §3
Cancer cells A549 co-cultured with normal cells COS7 were stained with these molecules, respectively. […] Then HeLa cells co-cultured with COS7 cells (FIG. 11), and A549 cells co-cultured with HLF cells (FIG. 12) were also stained with these molecules, the results were similar with that in A549 cells co-cultured with COS7 cells. In addition to co-culturing, A549 cells and HLF cells were also seeded on different cover glasses and stained with these molecules. […] Based on the imaging results above, it can be concluded that the selectivity of these IVP molecules to cancer cells is also based on the length of alkyl chain at pyridinium salt side. Lengthening the alkyl chain at the pyridinium salt side will eliminate the selectivity to cancer cells.

HeLa cells [4] = assay: Mitochondrion-nucleolus migration on CCCP treatment, HeLa cells; assay type: cell-based; conditions: pre-stained 2 μM 30 min, 20 μM CCCP 5 min
Protocol: FIG. 16 Live HeLa cells were pre-stained with 2 μM IVP-02 for 30 min, and treated with 20 μM CCCP for 5 min. Then CCCP was removed away and fresh culture medium was added for another 5 min. λex=488 nm, λem=500-650 nm. Scale bar=20 μm.
FIG. 19 Live HeLa cells were pre-stained with 2 μM IVP-04, 22, 42, 06, 62 for 30 min, and treated with 20 μM CCCP for 5 min. Then CCCP was removed away and fresh culture medium was added for another 5 min, respectively. λex=488 nm, λem=500-650 nm. Scale bar=20 μm.
as §2, §4

CC[n+]1ccc(/C=C/c2c[nH]c3ccccc23)cc1 [IVP-02]
selective staining and viability monitoring in co-cultured cells [1]: could selectively stain cancer cells and monitor their viability through mitochondrion-nucleolus migration
two-photon fluorescence imaging (HeLa cells [2]): bright two-photon fluorescence
fluorescence after adding H2O2 (A549 and HeLa cells): strong fluorescence was observed in nucleolus
fluorescence intensity in normal cells versus cancer cells [3]: much weaker than that in cancer cells
migration back to mitochondria after removal of CCCP (A549 cells; A549, CCCP removed, fresh medium 5 min): migrated back to mitochondria
migration from mitochondria to nucleolus after addition of CCCP (A549 cells; A549, pre-stained 2 μM 30 min, 20 μM CCCP 5 min): released from mitochondria and migrated to nucleolus
staining of A549 and HLF cells on different cover glasses (A549 and HLF cells): only A549 cells on the upper cover glass were illuminated
nucleolus staining after addition of CCCP (HeLa cells [4]): could stain nucleolus
